The numbers were not newly measured in US20150099751A1, “IN SITU GEL LOADED WITH PHOSPHODIESTERASE TYPE V INHIBITORS NANOEMULSION” (KING ABDULAZIZ UNIVERSITY, priority 2013, published 2015), which cites them from elsewhere.

The conditions of data set [1]: administration by mouth (orally).
For data set [2], the system named is male lower urinary tract syndrome (LUTS). The note with it: after 12 weeks of treatment.
In data set [3] the test system is isolated human corpus cavernosum. To be noted: at the recommended doses.

Consider `CCCc1nn(C)c2c(=O)[nH]c(-c3cc(S(=O)(=O)N4CCN(C)CC4)ccc3OCC)nc12` [Sildenafil, 1[4ethoxy3(6.7dihydro1methyl7oxo3propyl1Hpyrazolo [4,3d]pyrimidin5yl)phenylsulfonyl]4methylpiperazine], for which the bioavailability entry in data set [1] is reported as “approximately 40%”. For the same compound, the “International Prostate Symptom Score (IPSS) and LUTS-specific quality of life (QoL) score” value in data set [2] is reported as “overall improvement”. Moreover, the “direct relaxant effect on the isolated human corpus cavernosum” value in data set [3] is given as “no direct relaxant effect”.
